Results from patent US6875760B2 (Novo Nordisk A/S, priority 1999, dated 2005).

Target: T1, cloned human glucagon receptor (Homo sapiens, UniProt P47871)
T1 construct: expressed in transfected cells; plasma membrane preparation
Test: Glucagon Binding Assay (II)
Settings: for inhibition at 1 µM: screened at 1 μM, library compounds, read-out: displacement of the glucagon tracer when screened at 1 μM concentration in the glucagon binding assay II; for IC50: plasma membranes of BHK cells expressing the receptor, read-out: Glu Bd Assay (II) IC50
Experimental: Binding of compounds to the glucagon receptor was determined in a competition binding assay using the cloned human glucagon receptor.
The receptor inserted in the pLJ6′ expression vector using EcoRI/SSt1 restriction sites (Lok et al.) was expressed in a baby hamster kidney cell line (A3 BHK 570-25).
The homogenate was resuspended and centrifuged again. The final precipitate containing the plasma membranes was suspended in buffer and stored at −80° C. until use.
Binding assays were carried out in duplicate in polypropylene tubes or microtiter plates. The buffer used in this assay was 50 mM HEPES pH 7.4 containing 5 mM EGTA, 5 mM MgCl2 and 0.005% Tween 20. Sample (glucagon (Bachem CA) or test compounds) was added to each tube or well. Tracer (˜25.000 cpm) was diluted in buffer and was added to each tube or well. 0.5 mg freshly thawed plasma membrane protein diluted in buffer was then added in aliquots to each tube or well. Tubes or plates were incubated at 37° C. for 1 hour. Non-specific binding was determined with 10^−7 M of glucagon. Bound tracer and unbound tracer were then separated by vacuum filtration. The tubes or wells were washed twice with 0.01% Triton X-100 buffer. Scintillation fluid was added to the plates and radioactivity was quantified using a scintillation counter.

T1 sequence (P47871 26-477): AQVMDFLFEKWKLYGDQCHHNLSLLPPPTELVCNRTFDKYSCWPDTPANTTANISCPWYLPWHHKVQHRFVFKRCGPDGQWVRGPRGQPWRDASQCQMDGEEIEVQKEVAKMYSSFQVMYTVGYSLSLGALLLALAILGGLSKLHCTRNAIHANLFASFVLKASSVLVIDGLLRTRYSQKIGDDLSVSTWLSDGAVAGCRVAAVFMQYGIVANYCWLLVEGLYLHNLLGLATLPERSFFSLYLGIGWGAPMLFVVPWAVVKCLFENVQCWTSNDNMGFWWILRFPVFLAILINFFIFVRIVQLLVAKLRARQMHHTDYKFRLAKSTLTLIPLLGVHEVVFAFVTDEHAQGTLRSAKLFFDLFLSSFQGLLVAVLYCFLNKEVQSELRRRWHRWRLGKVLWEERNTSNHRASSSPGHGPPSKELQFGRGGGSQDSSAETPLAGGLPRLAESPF

Row | Structure (SMILES) | inhibition at 1 µM | IC50
1 | COc1cc(CN(Cc2ccc(C(=O)NCCC(=O)O)cc2)C(=O)Nc2ccc3c(c2)OCO3)ccc1O [Example 122, 3-{4-[1-(4-Hydroxy-3-methoxybenzyl)-3-(3,4-methylenedioxyphenyl)ureidomethyl]benzoylamino)propionic acid] | > 50% | –
2 | O=C(O)CCNC(=O)c1ccc(CN(CC2(O)CCCCC2)C(=O)Nc2ccc3c(c2)OCO3)cc1 [Example 123, 3-{4-[1-(1-Hydroxycyclohexylmethyl)-3-(3,4-methylenedioxyphenyl)ureidomethyl]benzoylamino)propionic acid] | > 50% | –
3 | O=C(O)CCNC(=O)c1ccc(CN(Cc2ccccc2OC(F)(F)F)C(=O)Nc2ccc3ccccc3c2)s1 [Example 124, 3-{5-[1-(2-Trifluoromethoxybenzyl)-3-naphthalene-2-ylureidomethyl]thiophene-2-carbonylamino)propionic acid] | > 50% | –
4 | CCCCOc1ccc(NC(=O)N(Cc2ccc(C(=O)NCCC(=O)O)s2)Cc2ccccc2OC(F)(F)F)cc1 [Example 125, 3-{5-[1-(2-Trifluoromethoxybenzyl)-3-(4-butoxyphenyl)ureidomethyl]thiophene-2-carbonylamino)propionic acid] | > 50% | –
5 | O=C(O)CCNC(=O)c1ccc(CN(Cc2ccccc2OC(F)(F)F)C(=O)Nc2ccc(SC(F)(F)F)cc2)s1 [Example 126, 3-{5-[1-(2-Trifluoromethoxybenzyl)-3-(4-trifluoromethylsulfanylphenyl)ureidomethyl]thiophene-2-carbonylamino)propionic acid] | > 50% | –
6 | CC(C)(C)c1ccc(CN(Cc2ccc(C(=O)NCCC(=O)O)s2)C(=O)Nc2ccc3ccccc3c2)cc1 [Example 127, 3-{5-[1-(4-tert-Butylbenzyl)-3-naphthalene-2-ylureidomethyl]thiophene-2-carbonylamino)propionic acid] | > 50% | –
7 | O=C(O)CCNC(=O)c1ccc(CN(Cc2ccc(C(F)(F)F)cc2)C(=O)Nc2ccc3ccccc3c2)s1 [Example 128, 3-{5-[1-(4-Trifluoromethylbenzyl)-3-naphthalene-2-ylureidomethyl]thiophene-2-carbonylamino)propionic acid] | > 50% | –
8 | CCCCOc1ccc(NC(=O)N(Cc2ccc(C(C)(C)C)cc2)Cc2ccc(C(=O)NCCC(=O)O)s2)cc1 [Example 129, 3-{5-[1-(4-tert-Butylbenzyl)-3-(4-butoxyphenyl)ureidomethyl]thiophene-2-carbonylamino)propionic acid] | > 50% | –
9 | CC(C)(C)c1ccc(CN(Cc2ccc(C(=O)NCCC(=O)O)s2)C(=O)Nc2ccc(SC(F)(F)F)cc2)cc1 [Example 130, 3-{5-[1-(4-tert-Butylbenzyl)-3-(4-trifluoromethylsulfanylphenyl)ureidomethyl]thiophene-2-carbonylamino)propionic acid] | > 50% | –
10 | O=C(O)CCNC(=O)c1ccc(CN(Cc2ccc(C(F)(F)F)cc2)C(=O)Nc2ccc(SC(F)(F)F)cc2)s1 [Example 131, 3-{5-[1-(4-Trifluoromethylbenzyl)-3-(4-trifluoromethylsulfanylphenyl)ureidomethyl]thiophene-2-carbonylamino)propionic acid] | > 50% | –
11 | CC(C)(C)C1CCC(N(Cc2ccc(C(=O)NCCC(=O)O)cc2)C(=O)NC2CC2c2ccccc2)CC1 (stereo not drawn) [Example 132, 3-{4-[1-(4-tert-Butylcyclohexyl)-3-(2-phenylcyclopropyl)ureidomethyl]benzoylamino)propionic acid] | > 50% | –
12 | CC(C)(C)C1CCC(N(Cc2ccc(C(=O)NCCC(=O)O)cc2)C(=O)Nc2ccc(Br)cc2)CC1 (stereo not drawn) [Example 133, 3-{4-[3-(4-Bromophenyl)-1-(4-tert-butylcyclohexyl)ureidomethyl]benzoylamino)propionic acid] | > 50% | –
13 | CC(C)(C)C1CCC(N(Cc2cccc(C(=O)NCCC(=O)O)c2)C(=O)Nc2ccc(OC(F)(F)F)cc2)CC1 (stereo not drawn) [Example 134, 3-{3-[1-(4-tert-Butylcyclohexyl)-3-(4-trifluoromethoxyphenyl)ureidomethyl]benzoylamino)propionic acid] | > 50% | –
14 | CC(C)(C)C1CCC(N(Cc2cccc(C(=O)NCCC(=O)O)c2)C(=O)Nc2cc(Cl)cc(Cl)c2)CC1 (stereo not drawn) [Example 135, 3-{3-[1-(4-tert-Butylcyclohexyl)-3-(3,5-dichlorophenyl)ureidomethyl]benzoylamino)propionic acid] | > 50% | –
15 | O=C(O)CCNC(=O)c1ccc(CN(C(=O)Nc2ccc(OC(F)(F)F)cc2)C2Cc3ccccc3C2)cc1 [Example 137, 3-{4-[1-(1-Indan-2-yl)-3-(4-trifluoromethoxyphenyl)ureidomethyl]benzoylamino)propionic acid] | – | 360 nM
16 | O=C(O)CCNC(=O)c1ccc(CN(C(=O)Nc2cc(Cl)cc(Cl)c2)C2Cc3ccccc3C2)cc1 [Example 138, 3-{4-[1-Indan-2-yl-3-(3,5-dichlorophenyl)ureidomethyl]benzoylamino}propionic acid] | – | 637 nM
17 | C[C@@H](C1CCCCC1)N(Cc1ccc(C(=O)NCCC(=O)O)cc1)C(=O)Nc1ccc(OC(F)(F)F)cc1 [Example 139, 3-{4-[1-((1S)-1-Cyclohexylethyl)-3-(4-trifluoromethoxyphenyl)ureidomethyl]benzoylamino)propionic acid] | – | 379 nM
18 | C[C@@H](C1CCCCC1)N(Cc1ccc(C(=O)NCCC(=O)O)cc1)C(=O)Nc1cc(Cl)cc(Cl)c1 [Example 140, 3-{4-[1-((1S)-1-Cyclohexylethyl)-3-(3,5-dichlorophenyl)ureidomethyl]benzoylamino)propionic acid] | – | 574 nM
19 | O=C(O)CCNC(=O)c1ccc(CN(CCC(c2ccccc2)c2ccccc2)Cc2ccc(C(F)(F)F)cc2)cc1 [Example 141, 3-(4-{[(3,3-Diphenylpropyl)-(4-trifluoromethylbenzyl)amino]methyl}benzoylamino)propionic acid] | > 50% | –
20 | O=C(O)CCNC(=O)c1ccc(CN(CCC(c2ccccc2)c2ccccc2)Cc2ccc(C(F)(F)F)cc2)s1 [Example 142, 3-(5-{[(3,3-Diphenylpropyl)-(4-trifluoromethylbenzyl)amino]methyl}thiophene-2-carbonylamino)propionic acid] | > 50% | –
21 | O=C(O)CCNC(=O)c1ccc(CN(Cc2ccccc2Cl)CC(c2ccccc2)c2ccccc2)cc1 [Example 143, 3-(4-{[(2,2-Diphenylethyl)-(2-chlorobenzyl)amino]methyl}benzoylamino)propionic acid] | > 50% | –
22 | O=C(O)CCNC(=O)c1ccc(CN(Cc2ccccc2Cl)CC(c2ccccc2)c2ccccc2)s1 [Example 144, 3-(5-{[(2,2-Diphenylethyl)-(2-chlorobenzyl)amino]methyl}thiophene-2-carbonylamino)propionic acid] | > 50% | –
23 | O=C(O)CCNC(=O)c1ccc(CN(CCc2ccccc2)Cc2ccc(Oc3ccccc3)cc2)cc1 [Example 145, 3-(4-{[(2-Phenylethyl)-(4-phenoxybenzyl)amino]methyl}benzoylamino)propionic acid] | > 50% | –
24 | O=C(O)CCNC(=O)c1ccc(CN(CCc2ccccc2)Cc2ccc(Oc3ccccc3)cc2)s1 [Example 146, 3-(5-{[(2-Phenylethyl)-(4-phenoxybenzyl)amino]methyl}thiophene-2-carbonylamino)propionic acid] | > 50% | –
